Laboratory results reported in PMC5699933 (Journal of medicinal chemistry, 2017).

How the values were obtained:
[1] = PAMPA-BBB assay; conditions: in-house conditions; 17 h, 200 μM, 25 °C, triplicate
[2] = earlier pharmacokinetic studies; cited from earlier work
[3] = system: CYPs; conditions: earlier pharmacokinetic studies; cited from earlier work

| SMILES | Determined Pe [1] | human microsome metabolism [2] | CYPs inhibition [3] |
| --- | --- | --- | --- |
| Cn1c(=O)c2[nH]cnc2n(C)c1=O.O [Theophylline] | 0.15 ± 0.04 10^−6 cm s^−1 |  |  |
| CNCCCc1cncc(CCc2cc(C)cc(N)n2)c1 [Compound 6] |  | little | very poor |
| CNCCCN1c2ccccc2CCc2ccccc21 [Desipramine] | 20.52 ± 0.64 10^−6 cm s^−1 |  |  |

Now from value to molecule, other results behind:

| Determined Pe [1] | SMILES | human microsome metabolism [2] | CYPs inhibition [3] |
| --- | --- | --- | --- |
| 17.41 10^−6 cm s^−1 | CNCc1cccc(-c2cc(F)cc(CCc3cc(C)cc(N)n3)c2)c1 [Compound 18, 6-(2-(5-Fluoro-3′-((methylamino)methyl)-[1,1′-biphenyl]-3-yl)ethyl)-4-methylpyridin-2-amine] |  |  |
| 5.56 10^−6 cm s^−1 | CNCc1cccc(-c2cncc(CCc3cc(C)cc(N)n3)c2)c1 [Compound 16, 4-Methyl-6-(2-(5-(3-((methylamino)methyl)phenyl)pyridin-3-yl)ethyl)pyridin-2-amine] |  |  |
